# Measured values as given in patent publication US20040105849A1, “Treatment for SMA disease” (priority 2002, published 2004).
# Columns and labels:
# [1] = tested on: Patient A, Spinal Muscular Atrophy (SMA) Type I; test: Tolerability / adverse effects of the supplements in Patient A; format: in vivo, human
# From the text: It is understood that the amounts of the various ingredients of the method of the invention can be, as may be necessary, conveniently be adjusted up or down for body weigh and other variants of the disease. The mode of delivery may vary. […] Ingredients could also be injected into the gastric tube in solid, gel or semi-solid form. Other children may swallow ingredients in solid or liquid form (with pharmaceutically acceptable carriers, e.g., water).
# [2] = tested on: Infantile Seborrhoeic Dermatitis (cradle cap); test: Treatment of Infantile Seborrhoeic Dermatitis (cradle cap) in Patient A; format: in vivo, human; settings: about 4,000 mcg at intervals of three days per week
# From the text: Early Symptoms and Patient Diagnosis. The patient (“Patient A”), a person. They were normal at birth with no signs of muscular weakness. Within three months of their birth, they developed a skin condition. […] Infantile Seborrhoeic Dermatitis, also known as cradle cap, is a condition that occurs in infants and is caused by the drying of excess oils excreted from the infant's body. It is characterized by a yellowish-whitish crust on the infant's head. Following medical consultation, various topical creams and ointments were employed without success. The B vitamin biotin was then given at a dosage of about 4,000 mcg at intervals of three days per week. Current research attributes cradle cap to a deficiency of this vitamin. […] Gut bacteria located in the large intestine are responsible for the production this B vitamin and a deficiency of this nutrient under normal conditions is rare.
smiles,measurement,setting,value
C[C@@H]1O[C@@H](OC[C@H]2O[C@@H](Oc3c(-c4ccc(O)c(O)c4)oc4cc(O)cc(O)c4c3=O)[C@H](O)[C@@H](O)[C@@H]2O)[C@H](O)[C@H](O)[C@H]1O [Rutin],adverse effects at higher dosages,[1]; dosages higher than approximately 3 mg every three days,"nausea, decrease gastrointestinal motility and drowsiness"
same,adverse effect of rutin along with pectin,[1]; rutin added to pectin,caused their lips to blister and peel
O=C(O)CCCC[C@@H]1SC[C@@H]2NC(=O)N[C@@H]21 [biotin],course of cradle cap,[2],resolved itself almost immediately
O=c1c(O)c(-c2ccc(O)c(O)c2)oc2cc(O)cc(O)c12 [quercetin],adverse effect of too much quercetin,"[1]; above 300 mg capsule, ½ capsule three days per week",depress Patient A's respiration
